One test addresses T1, Caspase-1 (Homo sapiens, UniProt P29466).
T1 sequence (P29466 whole entry): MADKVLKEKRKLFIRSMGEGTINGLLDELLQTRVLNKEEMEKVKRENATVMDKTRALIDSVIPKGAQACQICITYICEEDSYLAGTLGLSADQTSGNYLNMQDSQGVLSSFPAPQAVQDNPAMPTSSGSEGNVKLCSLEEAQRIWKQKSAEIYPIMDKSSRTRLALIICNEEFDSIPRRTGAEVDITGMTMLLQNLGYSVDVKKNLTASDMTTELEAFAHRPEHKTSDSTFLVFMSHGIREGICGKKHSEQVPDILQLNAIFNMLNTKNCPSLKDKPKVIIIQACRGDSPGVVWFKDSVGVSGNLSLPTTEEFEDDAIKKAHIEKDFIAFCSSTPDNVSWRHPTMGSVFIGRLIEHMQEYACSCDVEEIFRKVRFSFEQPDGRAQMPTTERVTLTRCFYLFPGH
The experiment in a line: Inhibition of ICE.

In the next test the target is Caspase-8 (Homo sapiens, UniProt Q14790). The experiment in a line: Inhibition of caspase8.
Caspase-8, sequence (Q14790 217-374 limits assumed): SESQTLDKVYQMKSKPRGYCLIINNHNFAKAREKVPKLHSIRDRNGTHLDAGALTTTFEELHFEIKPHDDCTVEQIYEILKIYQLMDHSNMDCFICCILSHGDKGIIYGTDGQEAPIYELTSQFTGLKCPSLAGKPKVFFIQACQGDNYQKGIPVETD
Caspase-8, sequence (Q14790 385-479 limits assumed): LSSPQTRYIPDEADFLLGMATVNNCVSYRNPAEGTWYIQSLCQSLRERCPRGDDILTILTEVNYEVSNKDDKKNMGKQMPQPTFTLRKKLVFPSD
A further test addresses T2, Caspase-3 (Homo sapiens, UniProt P42574).
T2 sequence (P42574 whole entry): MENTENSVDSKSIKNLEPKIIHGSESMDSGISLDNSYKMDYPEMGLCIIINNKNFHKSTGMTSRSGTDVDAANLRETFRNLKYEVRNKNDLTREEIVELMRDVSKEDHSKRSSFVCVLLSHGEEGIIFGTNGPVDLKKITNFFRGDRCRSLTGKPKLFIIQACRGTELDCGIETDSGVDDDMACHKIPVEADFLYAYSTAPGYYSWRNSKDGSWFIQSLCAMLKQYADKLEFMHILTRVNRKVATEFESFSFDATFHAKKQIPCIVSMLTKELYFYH
The test can be described thus: Inhibition of caspase3.

For the next test, the system named is THP-1. The experiment in a line: Inhibition of IL1-beta secretion in human THP1 cells. The format is functional, cell-based.

Take `O=C1C[C@H](NC(=O)C2(C(=O)NNC(=O)c3cccc4ccccc34)CCCCC2)C(O)O1` (stereo not given in full): the IC50 is 50 nM on Caspase-1, 70 nM against Caspase-8, greater than 10 µM on Caspase-3 and 450 nM in the test on THP-1.
For `Cc1cccc(C(=O)NNC(=O)C2(C(=O)N[C@H]3CC(=O)OC3O)CCCC2)c1` (stereo not given in full), in that order: 490 nM, 1200 nM, greater than 10 µM and 2000 nM.
Regarding `Cc1cccc(C)c1C(=O)NNC(=O)C1(C(=O)N[C@H]2CC(=O)OC2O)CCCCC1` (stereo not given in full), the IC50 on Caspase-1 is no less than 10000 nM; at Caspase-8 it was 230 nM; at Caspase-3, greater than 10 µM; in the test on THP-1, no less than 2500 nM.
Take `O=C1C[C@H](NC(=O)C2(C(=O)NNC(=O)c3ccc4ccccc4c3)CCC2)C(O)O1` (stereo not given in full): the figures for the IC50 against Caspase-1, on Caspase-8 and against Caspase-3 were 240 nM, 6300 nM and greater than 10 µM, respectively.
As to `O=C1C[C@H](NC(=O)C2(C(=O)NNC(=O)c3ccc4ccccc4c3)CCCCC2)C(O)O1` (stereo not given in full), the IC50 at Caspase-1 was 90 nM; on Caspase-8, 2600 nM; on Caspase-3, greater than 10 µM; in the test on THP-1, 790 nM.
For `O=C1C[C@H](NC(=O)C2(C(=O)NNC(=O)c3ccc4ccccc4c3)Cc3ccccc3C2)C(O)O1` (stereo not given in full), in that order: 30 nM, 2100 nM, greater than 10 µM and 500 nM.
On to `O=C1C[C@H](NC(=O)C2(C(=O)NNC(=O)c3ccc4ccccc4c3)CC2)C(O)O1` (stereo not given in full), for which the IC50 was 2900 nM on Caspase-1, no less than 10000 nM at Caspase-8, greater than 10 µM against Caspase-3 and 6400 nM in the test on THP-1.
On to `O=C1C[C@H](NC(=O)C2(C(=O)NNC(=O)c3cccc4ccccc34)Cc3ccccc3C2)C(O)O1` (stereo not given in full), for which the IC50 on Caspase-1 was 40 nM; at Caspase-8, 420 nM; at Caspase-3, greater than 10 µM; in the test with THP-1, 690 nM.
`O=C1C[C@H](NC(=O)C2(C(=O)NNC(=O)c3cccc4ccccc34)CCCC2)C(O)O1` (stereo not given in full): the IC50 is 40 nM at Caspase-1, 90 nM at Caspase-8, greater than 10 µM against Caspase-3 and 480 nM with THP-1.
For `Cc1ccccc1C(=O)NNC(=O)C1(C(=O)N[C@H]2CC(=O)OC2O)CCC1` (stereo not given in full) the same measures were 310 nM, 310 nM, greater than 10 µM and 610 nM.
For `Cc1ccc(C(=O)NNC(=O)C2(C(=O)N[C@H]3CC(=O)OC3O)CCC2)cc1` (stereo not given in full), in that order: 580 nM, 4300 nM, greater than 10 µM and 6900 nM.
For `Cc1cccc(C(=O)NNC(=O)C2(C(=O)N[C@H]3CC(=O)OC3O)CCC2)c1` (stereo not given in full) the same measures were 150 nM, 2700 nM, greater than 10 µM and 620 nM.
In the case of `O=C1C[C@H](NC(=O)C2(C(=O)NNC(=O)c3cccc4ccccc34)CCC2)C(O)O1` (stereo not given in full), the IC50 against Caspase-1 is 50 nM; at Caspase-8, 130 nM; against Caspase-3, greater than 10 µM; in the test on THP-1, 470 nM.
For `Cc1cccc(C(=O)NNC(=O)C2(C(=O)N[C@H]3CC(=O)OC3O)CCCCC2)c1` (stereo not given in full) the same measures were 430 nM, 3900 nM, greater than 10 µM and 470 nM.
For `COc1cccc(OC)c1C(=O)NNC(=O)C1(C(=O)N[C@H]2CC(=O)OC2O)CCCCC1` (stereo not given in full) the same measures were 700 nM, 300 nM, greater than 10 µM and no less than 2500 nM.
For `O=C1C[C@H](NC(=O)C2(C(=O)NNC(=O)c3ccc4ccccc4c3)CCCC2)C(O)O1` (stereo not given in full) the same measures were 150 nM, 3200 nM, greater than 10 µM and 570 nM.
In the case of `COc1cccc(C(=O)NNC(=O)C2(C(=O)N[C@H]3CC(=O)OC3O)CCCCC2)c1` (stereo not given in full), the IC50 against Caspase-1 is 240 nM; on Caspase-8, 1800 nM; against Caspase-3 it was greater than 10 µM; in the test on THP-1, 1300 nM.
For `COc1cccc(C(=O)NNC(=O)C2(C(=O)N[C@H]3CC(=O)OC3O)CCCC2)c1` (stereo not given in full), in that order: 200 nM, 1170 nM, greater than 10 µM and 550 nM.
For `COc1cccc(C(=O)NNC(=O)C2(C(=O)N[C@H]3CC(=O)OC3O)CC2)c1` (stereo not given in full), in that order: no less than 10000 nM, no less than 10000 nM, greater than 10 µM and no less than 10000 nM.
In the case of `COc1cccc(C(=O)NNC(=O)C2(C(=O)N[C@H]3CC(=O)OC3O)CCC2)c1` (stereo not given in full), the IC50 was 260 nM against Caspase-1, 2200 nM at Caspase-8, greater than 10 µM against Caspase-3 and 400 nM in the test on THP-1.
With `Cc1cccc(C(=O)NNC(=O)C2(C(=O)N[C@H]3CC(=O)OC3O)Cc3ccccc3C2)c1` (stereo not given in full), the IC50 at Caspase-1 was 430 nM; against Caspase-8 it was 3120 nM; at Caspase-3, greater than 10 µM; in the test on THP-1, no less than 2500 nM.
For `CCO[C@@H]1OC(=O)C[C@@H]1NC(=O)[C@@H]1CCCN2C(=O)CC[C@H](NC(=O)c3nccc4ccccc34)C(=O)N12` [PRALNACASAN], the IC50 against Caspase-1 worked out at 3.6 nM; against Caspase-8 it was 40 nM.

Source of the values: ChEMBL document CHEMBL1146191, “Synthesis and evaluation of novel 1-(2-acylhydrazinocarbonyl)-cycloalkyl carboxamides as interleukin-1beta converting enzyme (ICE) inhibitors” (Bioorg Med Chem Lett, 2006).
